# Reference: PMC5751205, “Rapid Non-Enzymatic Glycation of the Insulin Receptor under Hyperglycemic Conditions Inhibits Insulin Binding In Vitro: Implications for Insulin Resistance” (International Journal of Molecular Sciences, 2017)
# No end group written: not given here.
# Molecular target: insulin receptor (IR), intact recombinant, unglycated
# Experiment: Insulin binding to intact unglycated insulin receptor by UV spectroscopy
# Conditions: PBS pH 7.4 with 20 mM glucose, one of two independent runs
# Procedure: (§1) Intact recombinant IR was obtained from Sigma-Aldrich (St. Louis, MO, USA) and utilized at 42.9 units/mL in phosphate buffered saline, pH 7.4 (PBS) or in PBS with 20 mM glucose added. PBS and 20 mM glucose solutions of IR were incubated for six days at 37 °C. An aliquot of each preparation was then subjected to centrifugal filtration and washing through Ultrafree-MC 5 kda or Ultracel 3 kda filter units. The resulting retentates were resuspended in PBS. In this way, identical preparations of unglycated IR and glycated IR were made in both PBS and in 20 mM gucose PBS. Microliter quantities of PBS buffer, or 20 mM glucose PBS, or human recombinant INS (Sigma-Aldrich, St. Louis, MO, USA) in PBS or 20 mM glucose PBS were then added serially to 100 µL of each of the four preparations of IR and to control wells containing only PBS or 20 mM glucose PBS. Experiments were carried out in a crystal 96-well plate and the serial combinations subjected to UV spectrophotometry to obtain their spectra. The spectra of the control wells were subtracted from the spectra of the experimental wells to yield expected values at each UV wavelength and differences between the controls and experimental values determined. […] Binding constants were determined from the concentration at which the binding curves inverted. […]
row,Substance,Binding constant of unglycated INS for unglycated IR in 20 mM glucose
1,Insulin: recombinant human insulin (Lilly for glycation; Sigma-Aldrich for IR binding),110 µg/mL of INS

# Same assay, conditions: PBS pH 7.4 without glucose, concentration at which the binding curve inverted, one of two independent runs
row,Substance,Binding constant of unglycated INS for unglycated IR in PBS
1,Insulin: recombinant human insulin (Lilly for glycation; Sigma-Aldrich for IR binding),70 µg/mL of INS

# Molecular target: T1, insulin-HRP (Homo sapiens, UniProt P01308)
# T1 sequence (P01308 90-110): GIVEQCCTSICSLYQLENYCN
# T1 sequence (P01308 25-54): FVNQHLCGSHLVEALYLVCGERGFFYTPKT
# Experiment: Effect of glycation on insulin-HRP binding to IR peptides
# Conditions: 200 mM glucose, six days
# Procedure: Insulin receptor peptides (Figure 1) were synthesized by RS Synthesis (Louisville, KY, USA) to at least 95% purity by high pressure liquid chromatography (HPLC) and mass spectrometry. Peptides or recombinant human insulin (rHu) (Lilly, Indianapolis, IN, USA) were dissolved in glucose-free, phenol-red-free, Dulbecco’s modified Eagle growth medium (DMEM) to 1 mg/mL. Stock 2.0 M D-glucose (Sigma-Aldrich, St. Louis, MO, USA) solutions were also made in DMEM. The peptide and glucose stocks were combined to yield final reaction solutions with peptides at 0.1 mg/mL and glucose at […]. Combinations were incubated at 36–38 °C for 1–6 days. Reactions were stopped and solutions were stored by freezing at −20 °C. Glycated peptides were desalted by centrifugal filtration through Ultrafree-MC 5 kda or Ultracel 3 kda filter units. Resulting retentate was resuspended in low ionic strength saline immediately before performing mass spectrometry.
# (§2) Each peptide was held constant at 0.1 mg/mL in pH 7.4 phosphate-buffered saline, and 100 μL aliquots were pipetted into rows of a Costar high-binding ELISA plate and incubated for an hour. The plate was washed 3× with 0.1% Tween 20 (Sigma-Aldrich) in 0.05 M phosphate buffered saline (PBS). Two hundred µL 2% polyvinyl alcohol in PBS were added to each well and incubated 1 h. The plates were then washed 3× again with 0.1% Tween 20. A solution of insulin conjugated to horse-radish peroxidase (HRP), 0.83 µg in 1.0 mL PBS, was made and serially diluted with PBS by thirds, ten times. These serial dilutions were added to the plate wells, incubated for an hour, and then washed 3× as before. Finally, 100 µL of stock ABTS [2,2′-azino-bis(3-ethylbenzothiazoline-6-sulphonic acid)] (Millipore, Burlington, MA, USA) was added to each well, incubated for thirty minutes, and the plate was then read on a SpectraMax Plus scanning microplate spectrophotometer at 405 nm. Controls wells lacking peptide but with PVA, INS-HRP and ABTS measured non-specific binding that was subtracted from the absorbance values of the rest of the wells. All experiments were run in triplicate and the averages of the corrected absorbances were then plotted against the concentration of the INS–HRP for each peptide to yield binding curves. Because binding curves are calculated by plotting differences, it was not possible to incorporate error bars into these curves.
# The same technique just described in Section 4.3 was used to measure the effect of glycation on INS-HRP binding to IR peptides as above with one change: IR peptides were serially diluted instead of the INS-HRP, which was held constant. This methodological modification was made in order to reduce the amount of IR peptide required to obtain results. As in Section 4.3, each experiment was run in triplicate and the results averaged.
row,Substance,Insulin-HRP binding after incubation of the peptide in 200 mM glucose
1,"ENCSVIEGHLQ [51-61, synthetic insulin receptor peptide, residues 51-61 of human IR, insulin-like]",nearly undetectable levels

# Same assay, conditions: 6-day exposure to 20 mM glucose; triplicate, averaged
row,Substance,Change of INS-HRP binding to the peptide after glycation
1,"ENCSVIEGHLQ [51-61, synthetic insulin receptor peptide, residues 51-61 of human IR, insulin-like]",very significant loss of INS-HRP binding
2,H-FRVYGLESLKDLF [91-103],very significant loss of INS-HRP binding
3,H-NLTVIRGSRLFFNY [105-118],very significant loss of INS-HRP binding

# Same assay, conditions: change in Ins-HRP binding at 10 nM after exposure of the peptide to glycating conditions (six days at 20 mM glucose)
row,Substance,Ins-HRP Binding Inhibition (Glycated)
1,"ENCSVIEGHLQ [51-61, synthetic insulin receptor peptide, residues 51-61 of human IR, insulin-like]",YES
2,"GMDIRNNLTRLHELE [37-51, synthetic insulin receptor peptide, residues 37-51 of human IR (UniProt P06213)]",no
3,H-FRVYGLESLKDLF [91-103],YES
4,H-NLTVIRGSRLFFNY [105-118],YES
5,H-TIDWSRILDS [157-166],no
6,"HLYFGEVCPGMDIRNN [28-43, synthetic insulin receptor peptide, residues 28-43 of human IR (UniProt P06213)]",no

# More lines, now with the values ahead:
row,Ins-HRP Binding Inhibition (Glycated),Substance
1,no,"ESEDSQKHNQSEYEDS [689-705, synthetic insulin receptor peptide, residues 689-705 of human IR]"
2,no,H-TQGKLFFHYNPK [453-464]
3,no,"KTFEDYLHNVVFV [730-742, synthetic insulin receptor peptide, residues 730-742 of human IR]"

# Same assay, conditions: peptide incubated in 20 and 60 mM glucose over six days
row,Substance,Factor by which glycation reduces the insulin-HRP binding constant
1,"ENCSVIEGHLQ [51-61, synthetic insulin receptor peptide, residues 51-61 of human IR, insulin-like]",approximately 2

# Molecular target: T1, insulin-HRP
# Experiment: Insulin-HRP binding to IR peptides (ELISA plate, ABTS read-out)
# Conditions: Ins-HRP at 10 nM, IR peptide in the absence of glycation
# Procedure: as §2
row,Substance,10 nM Ins-HRP Binding (Native)
1,"ENCSVIEGHLQ [51-61, synthetic insulin receptor peptide, residues 51-61 of human IR, insulin-like]",YES
2,"GMDIRNNLTRLHELE [37-51, synthetic insulin receptor peptide, residues 37-51 of human IR (UniProt P06213)]",no
3,H-FRVYGLESLKDLF [91-103],YES
4,H-NLTVIRGSRLFFNY [105-118],YES
5,H-TIDWSRILDS [157-166],no
6,"HLYFGEVCPGMDIRNN [28-43, synthetic insulin receptor peptide, residues 28-43 of human IR (UniProt P06213)]",no

# Second part, the substance after the results:
row,10 nM Ins-HRP Binding (Native),Substance
1,no,"ESEDSQKHNQSEYEDS [689-705, synthetic insulin receptor peptide, residues 689-705 of human IR]"
2,no,H-TQGKLFFHYNPK [453-464]
3,no,"KTFEDYLHNVVFV [730-742, synthetic insulin receptor peptide, residues 730-742 of human IR]"

# Test system: insulin receptor (IR), intact recombinant, glycated
# Experiment: Insulin binding to intact glycated insulin receptor by UV spectroscopy
# Conditions: IR incubated six days at 37 °C in 20 mM glucose; binding in PBS with 20 mM glucose; measured as decrease in absorbance
# Procedure: as §1
row,Substance,"Decrease in amount of INS binding due to glycation of the IR, in 20 mM glucose"
1,Insulin: recombinant human insulin (Lilly for glycation; Sigma-Aldrich for IR binding),one third

# Same assay, conditions: IR incubated six days at 37 °C in 20 mM glucose; binding in PBS without glucose; measured as decrease in absorbance
row,Substance,"Decrease in amount of INS binding due to glycation of the IR, in PBS"
1,Insulin: recombinant human insulin (Lilly for glycation; Sigma-Aldrich for IR binding),one third

# Molecular target: not given
# Experiment: not given
# Conditions: glucose binding non-covalently to the peptide; ref [41],[42]; read-out: Glucose Binding Kd; cited from earlier work
# Procedure: Table 1 Table summarizing experiments to identify motifs determining insulin-receptor (IR) peptide glycation and whether glycation of IR peptides results in inhibition of insulin binding to these peptides. Specifically, this table provides binding constants glucose binding non-covalently to various insulin receptor (IR) peptides; glycation of the same IR peptides at 20 mM glucose for six days; the | column: Glucose Binding Kd (mM)
row,Substance,Kd [mM]
1,"ENCSVIEGHLQ [51-61, synthetic insulin receptor peptide, residues 51-61 of human IR, insulin-like]",52
2,"ESEDSQKHNQSEYEDS [689-705, synthetic insulin receptor peptide, residues 689-705 of human IR]",63
3,"GMDIRNNLTRLHELE [37-51, synthetic insulin receptor peptide, residues 37-51 of human IR (UniProt P06213)]",40
4,H-FRVYGLESLKDLF [91-103],37
5,H-NLTVIRGSRLFFNY [105-118],35
6,H-TIDWSRILDS [157-166],57
7,H-TQGKLFFHYNPK [453-464],57
8,"HLYFGEVCPGMDIRNN [28-43, synthetic insulin receptor peptide, residues 28-43 of human IR (UniProt P06213)]",50
9,Insulin: recombinant human insulin (Lilly for glycation; Sigma-Aldrich for IR binding),0.25
10,"KTFEDYLHNVVFV [730-742, synthetic insulin receptor peptide, residues 730-742 of human IR]",60

# Same assay, conditions: glucose binding non-covalently; second of two values printed for insulin; ref [41],[42]; read-out: Glucose Binding Kd (mM), second value; cited from earlier work
row,Substance,Kd [mM]
1,Insulin: recombinant human insulin (Lilly for glycation; Sigma-Aldrich for IR binding),30
